Values joined by “and” are separate entries in the source; they are usually repeats but may differ in a detail not shown here. Equal entries are not always repeated.
Key:
Assay type in all cases: in vivo
Male Cobb 500 chickens [1] = assay: Example 1 broiler feeding study: cumulative bird mortality after 42 days
Description: (§1) Male Cobb 500 chickens were fed different levels of S-ABA supplemented into starter, grower, and finisher feed diets for their entire 42 day commercial life cycle. On day 43, samples of chickens (sometimes referred to as “birds”) from each treatment were processed.
(§2) The starter, grower, and finisher basal diets represented standard commercial broiler diets. The starter and grower diets contained Salinomycin (a coccidiostat) at 40 grams/ton. The basal diets and final treatment diets were prepared using a 500 or 4,000 pound capacity vertical mixer or a 14,000 pound capacity horizontal mixer. After correcting for percent purity of S-ABA in the S-ABA dry powder, S-ABA was added to the basal diets at concentrations of 5, 50, or 500 ppm (4.6, 46, or 455 grams of S-ABA/ton). Control treatments included (1) commercial diet only and (2) commercial diet supplemented with antibiotics (bacitracin methylene disalicylate (BMD), and STAFAC® virginiamycin (hereinafter “Stafac”). STAFAC is a registered trademark of Phibro Animal Health Corporation). All feed diets were pelleted at ˜65° C. or below.
(§3) A 90-pen test facility was divided into 10 blocks containing 9 pens per block. Treatments were assigned to the pens using a complete randomized block design. Birds were assigned to the pens randomly. Specific treatment groups were as follows:
(§4) Starting on study day 0, any bird found dead or needing to be removed and sacrificed was weighed and necropsied. The probable cause of death and necropsy findings were recorded.

Male Cobb 500 chickens [2] = assay: Example 1 broiler feeding study: digestive tract weights at processing on day 43; conditions: for Digestive Tract Weights, Mean Weight: dirty litter, day 43
Description: as §1, §2, §3
Four blocks (9 pens/block) were selected at random from each treatment. On day 42 all birds in the selected blocks were individually wing banded with a unique number. Prior to processing the birds were fasted for approximately 12 hours. Immediately after processing on day 43, digestive tract weights and Bursa of Fabricius organ weights were measured.

[3] = system: Male and female Cobb 500 chickens; assay: Example 2 broiler feeding study: cumulative bird mortality after 42 days
Description: Male and female Cobb 500 chickens were fed different levels of S-ABA supplemented into starter, grower, and finisher feed diets for their entire 42 days commercial life cycle.
The starter, grower, and finisher basal diets represented standard commercial broiler diets. The starter and grower diets contained Salinomycin (a coccidiostat) at 40 grams/ton. The basal diets and final treatment diets were prepared using a 500 or 4,000 pound capacity vertical mixer or a 14,000 pound capacity horizontal mixer. After correcting for percent purity of S-ABA in the S-ABA dry powder, S-ABA was added to the basal diets at concentrations of 2.5, 5.0, or 7.5 ppm (2.3, 4.6, or 6.8 grams of S-ABA/ton). Control treatments included (1) commercial diet only and (2) commercial diet supplemented with antibiotics (bacitracin methylene disalicylate and Stafac). All feed diets were pelleted at ˜65° C. or below.
A 108-pen test facility was divided into 18 blocks containing 6 pens per block. Treatments were assigned to the pens using a complete randomized block design. Birds were assigned to the pens randomly. Specific treatment groups were as follows:
as §4

Male Cobb 500 chickens [4] = assay: Example 1 broiler feeding study: bird weights and feed conversion ratios; conditions: for Adjusted Feed/Gain Ratio, mean / Bird Weight, mean / Feed/Gain Ratio, mean: 5 ppm S-ABA in feed, dirty litter
Description: as §1, §2, §3
Feed was provided ad libitum throughout the study via one handing, ˜17-inch diameter tube feeder per pen. Chick feeder trays were placed in each pen for approximately the first 4 days. Feed added and removed from pens was weighed and recorded from day 0 to day 42. Diet changes were conducted at the same time for all pens. The feeding period for each diet was as shown below:
Birds were weighed by pen at 0, 7, 14, 21, 28, 35, and 42 days of age. The feed remaining in each pen was weighed and recorded on study day 0, 7, 14, 21, 28, 35, and 42 days of age. The feed intake during days 0-7, 0-14, 0-21, 0-28, 0-35, and 0-42 was calculated.
Performance data was summarized by average weight per bird at each body weights measurement period. The average feed conversion was calculated for each respective body weight period using the total feed consumption in a pen divided by the total weight of surviving birds (i.e. days 0-7, 0-14, 0-21, etc.). Adjusted feed conversion was calculated using the total feed consumption in a pen divided by the total weight of surviving birds and weight of birds that died or were removed from that pen.

[5] = commercial feed diet plus 5 ppm S-ABA, dirty litter, 42 days
[6] = 5 ppm S-ABA in commercial feed diet versus control 1

## CC1=CC(=O)CC(C)(C)[C@@]1(O)/C=C/C(C)=C\C(=O)O [S-ABA, (S)-(+)-abscisic acid]
Male Cobb 500 chickens [1]; 5 ppm S-ABA in commercial feed diets, versus control 1 and BMD/Stafac control 2
  bird mortality compared to the control treatments: significantly (P=0.05) lower bird mortality
Male Cobb 500 chickens [1]; [5]
  Cumulative Bird Mortality After 42 Days: Died: 0
  Cumulative Bird Mortality After 42 Days: Lived: 200
Male Cobb 500 chickens [2]; S-ABA in the feed diet
  weight of digestive tracts compared to the commercial feed diets (control 1 and control 2): increases the weight of digestive tracts
Male Cobb 500 chickens [2]; commercial feed diet plus 5 ppm S-ABA
  Digestive Tract Weights, Mean Weight: 86.7 Grams
Male Cobb 500 chickens [2]; commercial feed diet plus 50 ppm S-ABA
  Digestive Tract Weights, Mean Weight: 86.6 Grams
Male Cobb 500 chickens [2]; commercial feed diet plus 500 ppm S-ABA
  Digestive Tract Weights, Mean Weight: 88.4 Grams
[3]; ABA added to commercial feed diets, 42 days
  survival rates compared to the commercial feed diet containing bacitracin methylene disalicylate and Stafac: higher survival rates
[3]; S-ABA 2.5 ppm in feed, Female, dirty litter
  Cumulative Bird Mortality After 42 Days: Mortality: 2.4%
[3]; S-ABA 2.5 ppm in feed, Male, dirty litter
  Cumulative Bird Mortality After 42 Days: Mortality: 4.1%
[3]; S-ABA 5.0 ppm in feed, Female, dirty litter (two treatment groups)
  Cumulative Bird Mortality After 42 Days: Mortality: 0.4% and 1.9%
[3]; S-ABA 5.0 ppm in feed, Male, dirty litter (two treatment groups)
  Cumulative Bird Mortality After 42 Days: Mortality: 2.9% and 3.5%
[3]; S-ABA 7.5 ppm in feed, Female, dirty litter
  Cumulative Bird Mortality After 42 Days: Mortality: 2.2%
[3]; S-ABA 7.5 ppm in feed, Male, dirty litter
  Cumulative Bird Mortality After 42 Days: Mortality: 3.8%
Male Cobb 500 chickens [4]; 5 ppm S-ABA in commercial feed
  bird growth (weights) compared to the commercial feed diet (control 1): increased bird growth (weights)
Male Cobb 500 chickens [4]; [6]
  lowering of adjusted feed conversion ratios (corrected for number of surviving birds): 1-2 points
  reduction of feed conversion ratios: 1-4 points
Male Cobb 500 chickens [4]; Day 7
  Adjusted Feed/Gain Ratio, mean: 1.4093
  Bird Weight, mean: 0.1445 kg
  Feed/Gain Ratio, mean: 1.4093
Male Cobb 500 chickens [4]; Day 14
  Adjusted Feed/Gain Ratio, mean: 1.2854
  Bird Weight, mean: 0.3873 kg
  Feed/Gain Ratio, mean: 1.3400
Male Cobb 500 chickens [4]; Day 21
  Adjusted Feed/Gain Ratio, mean: 1.3842
  Bird Weight, mean: 0.7899 kg
  Feed/Gain Ratio, mean: 1.4137
Male Cobb 500 chickens [4]; Day 28
  Adjusted Feed/Gain Ratio, mean: 1.4517
  Bird Weight, mean: 1.4236 kg
  Feed/Gain Ratio, mean: 1.4584
Male Cobb 500 chickens [4]; Day 35
  Adjusted Feed/Gain Ratio, mean: 1.5610
  Bird Weight, mean: 2.0919 kg
  Feed/Gain Ratio, mean: 1.5731
Male Cobb 500 chickens [4]; Day 42
  Adjusted Feed/Gain Ratio, mean: 1.6691
  Bird Weight, mean: 2.7565 kg
  Feed/Gain Ratio, mean: 1.6861

— US20200030269A1, “ANIMAL FEED COMPOSITIONS OF ABSCISIC ACID” (Valent BioSciences LLC, priority 2010, published 2020)
